# Reference: patent publication US11684614B2, “Formulations of hydroxypyridonate actinide/lanthanide decorporation agents” (priority 2017, dated 2023)
# “And” between values parts separate entries of the source, which are not always exact repeats. Equal entries are not always repeated.
# Assay: Repeated-treatment efficacy for removing an intravenous dose of 238Pu (excretion, tissue retention, clinical observations), female and male arms;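 on % Recovered Dose - ART: ART is abdominal tissue remainder with GI tract reproductive organs spleen bladder fat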
# Assay type: in vivo, Swiss-Webster mice
# Description: The objective of this study was to characterize the efficacy of 3,4,3-L1(1,2-HOPO) at enhancing elimination from an internal plutonium burden in female and male Swiss-Webster mice administered a soluble citrate complex of ^238Pu and treated multiple times, starting at 24 hours after the exposure. Efficacy was evaluated by comparing the tissue contents, urinary and fecal excretions of ^238Pu in treated animals versus untreated animals.
# The medical countermeasure 3,4,3-L1(1,2-HOPO) was administered parenterally (ip) or orally (po) via consecutive injections or gavages (six daily or twelve twice daily) starting at 24 hours post contamination at the following four selected doses: 30 μmol/kg ip, 150 μmol/kg po, 300 μmol/kg po, and 600 μmol/kg po (equivalent to respective approximate human doses range of […], using the accepted conversion system of mouse doses into human equivalent doses—HED—based on body surface area). Oral doses also included the permeability enhancer selected during formulation development work.
# • Challenge isotope: ^238Pu • Challenge dose: 25 nCi (i.e., approximately 0.8 μCi/kg) • Route of contamination: Intravenous (iv) tail-vein • Route of treatment: Intraperitoneal Injection (ip) or Oral (po) • Frequency of treatment: Multiple (once- or twice-daily for 6 days) doses, starting 24 hr postcontamination • Treatment dose calculation: Dose calculations (mg/kg or μmol/kg) for the decorporation agent were based on the individual body weight measured after contamination. • Study Duration: 11 days, in-life
# c. […] Test article and control dose formulations were prepared within 1 day of dose administration, by weighing out the appropriate amount of test article, dispersing in vehicle. For ip solutions, the test article was used alone, while for oral suspensions, a mixture of test article and excipient (90:10, w:w) was used. The pH was adjusted to 7.0-7.4 for ip administration and 5.0-5.5 for oral administration with sterile NaOH. Dose formulations were prepared at room temperature and filter-sterilized. • Storage: 2-8° C.; refrigerated; protected from light. • Characterization: The concentration of each test article formulation was verified by high-performance liquid chromatography-mass spectrometry. • Test Article Handling: Test, reference, and control article formulations were handled with the use of eye protection, gloves, and a protective laboratory coat. • Correct Dose Assurance: The test article was weighed with calibrated balances. The administration of each dose formulation was properly documented, and the amount administered to each animal recorded.
# e. Experimental Procedures (In-Life Evaluations and Euthanasia) • Contamination: Single administration by intravenous (iv) tail-vein injection (0.2 mL injection volume) under isoflurane anesthesia. Three standard 0.2 mL injections were performed into polyethylene bottles and pre-loaded with aliquots of concentrated nitric acid on each injection day. Six female and six male mice were culled for necropsy 1 hr post-contamination and were used as standards. A11 standards were processed and counted together with the final samples to allow verification of the contamination dose. • Dose Administration: Single administration by intraperitoneal injection (ip) or oral gavage (po) under isoflurane anesthesia. • Mortality/Morbidity: Assessed at least once daily. • Clinical Observations: Recorded once daily (4 hr post-dose on day of treatment), or more often as clinical signs warranted. […]
# [1] = female animals, D-7 necropsy, individual animals, listed as 3,4,3-LI(1,2-HOPO)
# [2] = female animals, D-11 necropsy, individual animals, listed as 3,4,3-LI(1,2-HOPO)
# [3] = male animals, Day 7 necropsy, animal group B, listed as 3,4,3-LI(1,2-HOPO)
smiles,measurement,setting,value
"O=C(NCCCN(CCCCN(CCCNC(=O)c1cccc(=O)n1O)C(=O)c1cccc(=O)n1O)C(=O)c1cccc(=O)n1O)c1cccc(=O)n1O [3,4,3-L1(1,2-HOPO)]",% Recovered Dose-Female Animals-Urine per Day-Day 11 Necropsy,"animal group M, day 11, female mice, listed as 3,4,3-LI(1,2-HOPO)",0.44% and 0.82% and 0.63% and 0.58% and 0.53% and 1.12% and 0.91% and 0.93%
same,238Pu excretion path,female and male mice,predominantly through feces
same,adverse effect,"female and male mice, parenteral or oral, all dose levels",No adverse effect
same,% Recovered Dose - Kidney,"female animals, D-7 necropsy, individual animals (ID = group letter + number), dose/regimen of group not given, listed as 3,4,3-LI(1,2-HOPO)",0.27% (2×) and 0.15% and 0.24% (2×) and 0.17% and 0.31% and 0.14% and 0.09% and 0.28% (2×) and 0.43% and 0.12% and 0.21% and 0.22% (2×)
same,% Recovered Dose - ART,[1],1.01% and 1.36% and 1.12% (2×) and 1.30% and 1.21% and 1.29% and 1.37% and 1.20% and 0.98% (2×) and 1.39% and 1.24% (2×) and 1.16% and 1.59%
same,% Recovered Dose - Combined Body,[1],34.79% and 38.75% and 40.32% and 37.43% and 36.37% and 39.78% and 31.50% and 26.07% and 36.12% and 35.98% and 41.72% and 33.15% and 35.58% and 25.26% and 33.24% and 36.43%
same,% Recovered Dose - Combined Excreta,[1],65.21% and 61.25% and 59.68% and 62.57% and 63.63% and 60.22% and 68.50% and 73.93% and 63.88% and 64.02% and 58.28% and 66.85% and 64.42% and 74.74% and 66.76% and 63.57%
same,% Recovered Dose - Liver,[1],8.04% and 11.52% and 14.05% and 17.71% and 5.50% and 9.28% and 7.15% and 5.47% and 15.03% and 5.40% and 15.12% and 5.35% and 15.19% and 6.77% and 11.56% and 16.40%
same,% Recovered Dose - SKEL,[1],23.83% and 24.03% and 23.40% and 16.40% and 28.04% and 26.98% and 21.55% and 17.57% and 18.05% and 27.21% and 23.15% and 24.86% and 17.48% and 15.65% and 19.07% and 16.03%
same,% Recovered Dose - SOFT,[1],1.63% (2×) and 1.69% and 1.50% and 1.75% and 1.54% and 2.00% and 1.36% and 1.57% and 1.61% and 2.12% and 1.58% and 1.55% and 1.38% and 1.41% and 2.13%
same,% Recovered Dose - Total Feces,[1],37.37% and 25.66% and 41.03% and 28.59% and 40.61% and 26.74% and 36.25% and 39.09% and 25.39% and 34.86% and 39.63% and 37.46% and 28.91% and 37.33% and 32.34% and 24.62%
same,% Recovered Dose - Total Urine,[1],27.84% and 35.60% and 18.65% (2×) and 33.98% and 23.02% and 33.48% and 32.25% and 34.83% and 38.49% and 29.16% and 29.39% and 35.51% and 37.41% and 34.43% and 38.95%
same,% Recovered Dose - Combined Body,[2],17.98% and 75.50% and 20.85% and 19.27% and 21.23% and 20.95% and 24.13% and 19.99% and 25.13% and 24.87% and 27.98% and 26.74% and 30.36% and 31.29% and 29.30% and 29.18% and 27.61% and 23.71% and 21.16% and 25.90% and 28.33% and 29.52% and 30.59% and 27.44%
same,% Recovered Dose - Combined Excreta,[2],82.02% and 24.50% and 79.15% and 80.73% and 78.77% and 79.05% and 75.87% and 80.01% and 74.87% and 75.13% and 72.02% and 73.26% and 69.64% and 68.71% and 70.70% and 70.82% and 72.39% and 76.29% and 78.84% and 74.10% and 71.67% and 70.48% and 69.41% and 72.56%
same,% Recovered Dose - GI Tract,[2],0.65% and 1.84% and 0.77% and 0.48% and 0.55% and 0.52% and 0.62% and 0.54% and 0.97% and 0.80% (2×) and 1.10% and 0.99% and 0.95% and 1.50% and 0.96% and 0.87% and 0.70% and 0.91% and 0.68% and 0.50% and 1.19% and 0.81% and 1.03%
same,% Recovered Dose - Kidney,[2],0.09% and 1.35% and 0.13% (2×) and 0.08% (2×) and 0.18% and 0.14% (4×) and 0.05% and 0.11% (2×) and 0.25% and 0.16% (2×) and 0.26% and 0.12% and 0.20% (2×) and 0.15% and 0.10% (2×)
same,% Recovered Dose - Liver,[2],4.74% and 36.77% and 4.16% and 1.79% and 1.96% and 2.48% and 3.25% and 1.16% and 8.54% and 3.78% and 4.98% and 7.97% and 5.01% and 6.46% and 4.53% and 6.86% and 4.50% and 3.03% and 5.22% and 3.96% and 5.73% and 8.43% and 7.92% and 6.01%
same,% Recovered Dose - Soft Tissue,[2],1.29% (2×) and 3.31% and 0.99% and 1.94% (2×) and 1.49% and 1.62% and 1.17% and 1.66% and 1.55% and 2.66% and 2.10% and 2.26% and 1.73% and 2.18% and 2.32% and 2.21% and 2.05% and 2.16% and 2.59% and 1.56% and 1.48% and 2.11%
same,% Recovered Dose - Total Bone,[2],11.21% and 32.22% and 14.80% and 15.63% and 16.61% and 16.38% and 18.50% and 17.05% and 13.83% and 18.64% and 18.99% and 15.53% and 21.88% and 21.46% and 21.52% and 18.92% and 19.89% and 17.79% and 12.72% and 18.57% and 20.43% and 17.82% and 20.28% and 18.12%
same,% Recovered Dose - Total Feces,[2],38.27% and 13.76% and 41.57% and 45.81% and 39.56% and 45.73% and 37.01% and 44.68% and 36.23% and 51.20% and 30.57% and 33.16% and 39.74% and 37.31% and 37.09% and 35.70% and 28.28% and 37.36% and 36.24% and 36.31% and 36.22% and 32.51% and 34.94% and 35.74%
same,% Recovered Dose - Total Urine,[2],43.75% and 10.74% and 37.58% and 34.92% and 39.21% and 33.32% and 38.85% and 35.33% and 38.64% and 23.93% and 41.45% and 40.10% and 29.89% and 31.40% and 33.61% and 35.12% and 44.11% and 38.93% and 42.60% and 37.79% and 35.45% and 37.97% and 34.47% and 36.82%
same,% Recovered Dose - Feces per Day - Day 2,"female animals, Day 7 necropsy, Day 2, listed as 3,4,3-LI(1,2-HOPO)",13.36% and 8.81% and 9.40%
same,% Recovered Dose - Feces per Day - Day 3,"female animals, Day 7 necropsy, Day 3, listed as 3,4,3-LI(1,2-HOPO)",5.58% and 1.92% and 3.39%
same,% Recovered Dose - Feces per Day - Day 4,"female animals, Day 7 necropsy, Day 4, listed as 3,4,3-LI(1,2-HOPO)",3.61% and 2.93% and 2.98%
same,% Recovered Dose - Feces per Day - Day 5,"female animals, Day 7 necropsy, Day 5, listed as 3,4,3-LI(1,2-HOPO)",2.85% and 2.91% and 2.16%
same,% Recovered Dose - Feces per Day - Day 6,"female animals, Day 7 necropsy, Day 6, listed as 3,4,3-LI(1,2-HOPO)",1.63% and 2.50% and 1.90%
same,% Recovered Dose - Feces per Day - Day 7,"female animals, Day 7 necropsy, Day 7, listed as 3,4,3-LI(1,2-HOPO)",1.39% and 1.95% and 1.75%
same,increase in total 238Pu excretion compared to the control groups,"female, 6 daily oral treatments, 600 μmol/kg, 11 days post-contamination",up to 143%
same,tissue content of 238Pu compared to saline control group,"female, all analyzed tissues, all dosing regimens",large reductions
same,full body content of 238Pu compared to saline control groups,"female, all treated groups",significant reductions
same,decrease in body burden compared to the control groups,"female, once-daily oral 600 μmol/kg, 11 days post-contamination",up to 45%
same,decorporation efficacy relative to parenteral DTPA,"female, oral once-daily 300 μmol/kg",equivalent to that of parenteral treatment with DTPA
same,238Pu elimination enhancement,"female, oral twice-daily 150 and 300 μmol/kg or once-daily 300 and 600 μmol/kg, 7 days post-contamination",significant
same,"% Recovered Dose Urine per Day, Day 1",[3],20.65% and 15.62% and 19.53% and 17.05%
same,"% Recovered Dose Urine per Day, Day 2",[3],2.02% and 2.81% and 2.18% and 1.96%
